Data reported in US12630544B2, “Compound, α-synuclein aggregate binder, and use thereof” (NATIONAL INSTITUTES FOR QUANTUM SCIENCE AND TECHNOLOGY, priority 2020, dated 2026).

Experiments:
[1] = target: T1, lesions caused by phosphorylated α-synuclein (Homo sapiens, UniProt P37840); experiment: In vitro autoradiography of human brain sections (DLB, MSA, healthy subject); format: binding; settings: 10 nM
T1 construct: α-synuclein aggregates formed in the brain of the DLB patient; from tissue; host or cells: post-mortem human brain: amygdala of DLB patient (sections or homogenate); cerebellum of MSA patient
From the text: Postmortem human brains were obtained in autopsies carried out with respect to a DLB patient, a multiple system atrophy (MSA) patient, and a healthy subject. In a cryostat (HM560, Carl Zeiss), frozen tissue from the DLB patient and frozen tissue from the healthy subject were sliced into sections each having a thickness of 20 μm. Brain tissue from the MSA patient was fixed in 10% neutral buffered formalin, embedded in a paraffin block, and sliced into sections each having a thickness of 6 μm.
Postfixed fresh frozen sections of amygdala tissue from the brain of the DLB patient and the frontal cortex tissue from the brain of the healthy subject and deparaffinized sections of formalin-fixed paraffin-embedded cerebellum tissue from the brain of the MSA patient were used. Each brain tissue section and [^18F]SPAL-T-06 (final concentration: 10 nM) were incubated in 50 mM Tris-HCl containing 20% ethanol at room temperature for 1 hour. In order to detect specific binding, the brain tissue section was also incubated in 50 mM Tris-HCl (containing 20% ethanol) containing [^18F]SPAL-T-06 (final concentration: 10 nM) and non-labeled SPAL-T-06 (final concentration: 10 μM). Subsequently, the section was washed with 50 mM Tris-HCl (containing 20% EtOH) at 4° C. for 2 minutes. This washing was carried out twice. Thereafter, the section was rinsed with MilliQ. […]

[2] = target: T2, homogenate of the brain of the DLB patient which was rich in α-synuclein lesions (Homo sapiens, UniProt P37840); experiment: In vitro binding test, homogenate of the brain of the DLB patient
T2 construct: α-synuclein aggregates formed in the brain of the DLB patient; from tissue; host or cells: post-mortem human brain: amygdala of DLB patient (sections or homogenate); cerebellum of MSA patient
Method: (§1) Fresh frozen tissue from the amygdala in the brain of a DLB patient and fresh frozen tissue from the frontal cortex in the brain of an AD patient were used. To each fresh frozen brain tissue, zirconia beads (ZB-20, TOMY) and a buffer solution which was 10 times the wet weight of the tissue were added. A mixture thus obtained was smashed with use of Micro Smash (MS-100R, TOMY) and then stored at −80° C. A homogenate of the brain of the DLB patient or a homogenate of the brain of the AD patient, [^18F]SPAL-T-06 (final concentration: 5 nM), and non-labeled SPAL-T-06 (final concentration: 0.01 nM to 1 μM) were mixed into a Tris-HCl buffer solution (containing 20% ethanol). Incubation was carried out at room temperature for 30 minutes, and then B/F separation (B: bound ligand, F: free ligand) was carried out by suction filtration and washing. Thereafter, radioactivity captured on a glass filter was measured with use of a gamma counter (2480WIZARD2, ParkinElmer). With regard to the concentration of each non-labeled SPAL-T-06, a test was carried out in triplicate. Results were analyzed with use of Prism 6J (GraphPad), displacement curves of the tested compounds were obtained, and then IC50 of each was calculated.

α-synuclein aggregates [3] = experiment: In vivo PET imaging of α-synuclein fibril-inoculated marmoset brain; settings: intravenous injection
[4] = Ex vivo imaging (autoradiography) of brain of physiological saline-injected mouse; format: in vivo; settings: intravenous, brain collected 40 minutes after administration
Method: A physiological saline-injected mouse was anesthetized with 1.5% (v/v) isoflurane. Then, [^18F]SPAL-T-06 (28.9 MBq) was intravenously injected into the physiological saline-injected mouse. Forty minutes after the administration of [^18F]SPAL-T-06, the brain was collected and frozen. In a cryostat (HM560), frozen coronal sections each having a thickness of 20 μm and respectively including positions at 0.50 mm, −0.46 mm, −1.94 mm, −3.16 mm, and −6.64 mm from the bregma were prepared. Each section was air-dried, and then placed in contact with an imaging plate for 15 minutes in a cassette. Thereafter, autoradiographs were obtained with use of BAS-5000 (Fuji Film).

α-synuclein aggregates [5] = target: T3, α-synuclein aggregates (Mus musculus, UniProt O55042); experiment: In vivo PET imaging of mouse brain (α-synuclein fibril-inoculated mouse vs physiological saline-injected mouse); settings: α-synuclein fibril-inoculated model mouse, intravenous injection
T3 construct: from tissue; host or cells: brain of C57/BL/6 mouse inoculated in the striatum with recombinant (E. coli) mouse α-synuclein fibrils; sections or living animal
Method: First, mouse α-synuclein was expressed in and extracted from E. coli as a recombinant protein, and then incubated in vitro to form insoluble α-synuclein aggregates. The α-synuclein aggregates were then inoculated into the striatum of a mouse. […] Note that the inoculation of the α-synuclein aggregates into the striatum of the mouse was carried out in the following manner. First, hair on the head of a 9-week-old C57/BL/6 male mouse which had been anesthetized with 1.5% (v/v) isoflurane was removed, and the scalp was disinfected with isodine, followed by application of xylocaine and incision in the scalp to expose the skull. Then, a hole was drilled in the skull at a position of 0.05 mm posterior to the bregma and 2 mm lateral to the midline, and 3 μl of an α-synuclein fibril solution (mouse α-synuclein fibril (4 mg/ml) in saline) was injected into a position […] ventral to the brain surface with use of a glass pipette. The scalp was then returned and sutured.
PET scanning was carried out with use of a micro PET Focus 220 animal scanner (Siemens Medical Solutions), which provided 95 slices each having a thickness of 0.851 mm (center thickness), a […]. Before the scanning, an α-synuclein fibril-inoculated mouse and a physiological saline-injected mouse (control) were each anesthetized with 1.5% (v/v) isoflurane. […]

[6] = target: homogenate of the brain of the AD patient (tau aggregates or amyloid β aggregates); experiment: In vitro binding test, homogenate of the brain of the AD patient; parameters: species or system human; settings: [18F]SPAL-T-06 5 nM displaced by non-labeled SPAL-T-06 0.01 nM to 1 μM; frontal cortex; room temperature 30 minutes
Method: as §1

- non-specific binding in gray matter and white matter of healthy subject frontal cortex (autoradiography) ([1]; section of frontal cortex of healthy subject): hardly observed
- binding selectivity with respect to α-synuclein aggregates versus tau or amyloid β aggregates (homogenate binding) ([2]; DLB versus AD brain homogenate): high binding selectivity
- IC50 ([2]; [18F]SPAL-T-06 5 nM displaced by non-labeled SPAL-T-06 0.01 nM to 1 μM, amygdala, room temperature 30 minutes): 1.58 nM
- accumulation in striatum and cerebral cortex rich in α-synuclein lesions (PET) (α-synuclein aggregates [5]): clear accumulation
- IC50 [6]: 10.9 nM
SMILES: CNc1cnc(C#C/C=C/c2nc3ccc(OCC(O)C[18F])cc3s2)cn1 (centres unmarked) [[^18F]SPAL-T-06, [^18F]-(E)-1-fluoro-3-((2-(4-(5-(methylamino)pyrazin-2-yl)but-1-en-3-yn-1-yl)benzo[d]thiazol-6-yl)oxy)propan-2-ol]
- binding to areas rich in lesions caused by phosphorylated α-synuclein (autoradiography) ([1]; DLB amygdala and MSA cerebellum sections, 1 hour): bound to areas in the brains of the DLB patient and the MSA patient which were rich in lesions caused by phosphorylated α-synuclein
- accumulation in the caudate nucleus rich in α-synuclein lesions (PET) (α-synuclein aggregates [3]): clear accumulation
- nonspecific accumulation in the white matter area (ex vivo autoradiography) [4]: not seen
